What was measured:
[1] = test system: GLXMAW (Soybean, Williams); assay: Preemergence herbicidal evaluation; format: in vivo, Glycine max, (L.) Merr. cv Williams; conditions: rated 4-5 weeks after treatment
Procedure, shortened: (§1)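 Sown cups got a single aqueous acetone spray of test compound (roughly 0.0156–0.500 kg/ha) before seedlings emerged. Evaluation, 4–5 weeks on, used a 0–9 visual scale covering plant stand, vigor, size, malformation, chlorosis and general appearance compared with controls.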

[2] = test system: CHEAL (Lambsquarters, Common); assay: Postemergence herbicidal evaluation; format: in vivo, Chenopodium album; conditions: postemergence
Procedure, shortened: (§2)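 Two-week-old seedlings sprayed with compound in 50/50 acetone/water plus 0.5% TWEEN 20, at about 0.0156 to 0.500 kg/ha, nozzle at 40 psi. Kept in greenhouse; rated visually 4-5 weeks after treatment on a 0-9 scale versus control, repeat tests averaged.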

ORYSAT (Rice, Tebonnet) = assay: Rice tolerance to post-transplant applications, flooded paddy conditions (Table III); format: in vivo, Oryza sativa, (L.) Tebonnet; conditions: in vivo
Experimental: Results of herbicide evaluation are expressed on a rating scale (0-9). The scale is based upon a visual observation of plant stand, vigor, malformation, size, chlorosis and overall plant appearance as compared with a control.
The tolerance of transplanted rice to post-transplanted herbicide applications is determined as follows: two ten-day-old rice seedlings (cv. Tebonnet) are transplanted into silt loam soil in 32 oz. plastic containers with a diameter of 10.5 cm and no drainage holes. After transplanting, the containers are flooded and the water level is maintained at 1.5 to 3 cm above the soil surface. Three days after transplanting, the flooded soil surface of the containers is treated with the selected aqueous/acetone 50/50 v/v mixture containing the test compounds to provide the equivalent of about 0.0313 to 0.500 kg/ha of active ingredient. The treated containers are placed on greenhouse benches, watered such that the water level is maintained as stated above, and cared for in accordance with conventional greenhouse procedures. Three to four weeks after treatment, the test is terminated and each container is examined and herbicidal effect rated according to the rating system provided in Example 37. The compounds evaluated are reported by compound number given in Example 37.
Plant species employed in this example are reported by header abbreviation, common name and scientific name.

ECHCG (Barnyardgrass) = assay: Preemergence herbicidal evaluation; format: in vivo, Echinochloa crus-galli; conditions: rated 4-5 weeks after treatment
Procedure, shortened: as §1

GALAP (Galium) = assay: Preemergence herbicidal evaluation; format: in vivo, Galium aparine; conditions: rated 4-5 weeks after treatment
Procedure, shortened: as §1

[3] = test system: IPOHE (Morningglory, Ivyleaf); assay: Postemergence herbicidal evaluation; format: in vivo, Ipomoea hederacea; conditions: postemergence
Procedure, shortened: as §2

[4] = rate 0.0313 kg/ha, rating scale 0-9
[5] = rate 0.0625 kg/ha, rating scale 0-9
[6] = rate 0.1250 kg/ha, rating scale 0-9
[7] = rate 0.2500 kg/ha, rating scale 0-9
[8] = rate 0.0156 kg/ha, rating scale 0-9

Row | Compound | Preemergence herbicidal rating GLXMAW [1, 4] | Preemergence herbicidal rating GLXMAW [1, 5] | Preemergence herbicidal rating GLXMAW [1, 6] | Preemergence herbicidal rating GLXMAW [1, 7] | Herbicidal rating CHEAL ([2]; rate 0.0156 kg/ha) | Herbicidal rating CHEAL ([2]; rate 0.0313 kg/ha) | Herbicidal rating CHEAL ([2]; rate 0.0625 kg/ha) | herbicidal effect rating, ORYSAT (rice tolerance) (ORYSAT (Rice, Tebonnet)) | Preemergence herbicidal rating ECHCG (ECHCG (Barnyardgrass); [4]) | Preemergence herbicidal rating ECHCG (ECHCG (Barnyardgrass); [5]) | Preemergence herbicidal rating ECHCG (ECHCG (Barnyardgrass); [6]) | Preemergence herbicidal rating ECHCG (ECHCG (Barnyardgrass); [7]) | Preemergence herbicidal rating GALAP (GALAP (Galium); [4]) | Preemergence herbicidal rating GALAP (GALAP (Galium); [5]) | Preemergence herbicidal rating GALAP (GALAP (Galium); [6]) | Preemergence herbicidal rating GALAP (GALAP (Galium); [7]) | Herbicidal rating IPOHE ([3]; rate 0.0156 kg/ha) | Herbicidal rating IPOHE ([3]; rate 0.0313 kg/ha) | Herbicidal rating IPOHE ([3]; rate 0.0625 kg/ha) | Preemergence herbicidal rating GLXMAW [1, 8] | further results
1 | CCOC(=O)CN1C(=O)C(COC)SC1=Nc1cc(-n2c(=O)cc(C(F)(F)F)n(C)c2=O)c(F)cc1Cl (stereo not shown) [Compound 156, Ethyl 2-{{2-chloro-5-[3,6-dihydro-3-methyl-2,6-dioxo-4-(trifluoromethyl)-1(2H)-pyrimidinyl]-4-fluorophenyl}imino}-5-(methoxymethyl)-4-oxo-3-thiazolidine-acetate] | 0.0 | 0.0 | 0.0 | 7.0 | 9.0 | 9.0 | 9.0 | 3.0 | 0.0 | 0.0 | 0.0 | 0.0 | 0.0 | 4.0 | 4.0 | 9.0 | 9.0 | 9.0 | 9.0 | – | –
2 | Cc1ccc(CN2C(=O)CSC2=Nc2cc(-n3c(=O)cc(C(F)(F)F)n(C)c3=O)c(F)cc2Cl)cc1Cl [Compound 149, 3-{4-Chloro-5-{[3-(3-chloro-4-methylbenzyl)-4-oxo-2-thiazolidinylidene]amino}-2-fluorophenyl}-1-methyl-6-(trifluoromethyl)-2,4(1H,3H)-pyrimidinedione] | – | – | 3.0 | 7.0 | 3.0 | 3.0 | 4.0 | 0.0 | – | – | 0.0 | 0.0 | – | – | 0.0 | 0.0 | 9.0 | 9.0 | 9.0 | – | –
3 | Cn1c(C(F)(F)F)cc(=O)n(-c2cc(N=C3SCC(=O)N3Cc3ccc(C(F)(F)F)cc3)c(Cl)cc2F)c1=O [Compound 141, 3-{4-Chloro-2-fluoro-5-{{3-[p-(trifluoromethyl)benzyl]-4-oxo-2-thiazolidinylidene}-amino}phenyl}-1-methyl-6-(trifluoromethyl)-2,4 (1H, 3H)-pyrimidinedione] | 0.0 | 0.0 | 0.0 | 3.0 | 3.0 | 5.0 | 9.0 | 0.0 | 0.0 | 0.0 | 0.0 | 2.0 | 0.0 | 0.0 | 0.0 | 0.0 | 9.0 | 9.0 | 9.0 | 0.0 | Preemergence herbicidal rating ECHCG (ECHCG (Barnyardgrass); [8]): 0.0; Preemergence herbicidal rating GALAP (GALAP (Galium); [8]): 0.0
4 | CN(C)c1ccc(CN2C(=O)CSC2=Nc2cc(-n3c(=O)cc(C(F)(F)F)n(C)c3=O)c(F)cc2Cl)cc1 [Compound 138, 3-{4-Chloro-5-{{3-[p-(dimethylamino)benzyl]-4-oxo-2-thiazolidinylidene}amino}-2-fluorophenyl}-1-methyl-6-(trifluoromethyl)-2,4(1H,3H)-pyrimidinedione] | 0.0 | 0.0 | 0.0 | 1.0 | 9.0 | 9.0 | 9.0 | 3.0 | 0.0 | 0.0 | 0.0 | 0.0 | 0.0 | 0.0 | 0.0 | 4.0 | 9.0 | 9.0 | 9.0 | 0.0 | Preemergence herbicidal rating ECHCG (ECHCG (Barnyardgrass); [8]): 0.0; Preemergence herbicidal rating GALAP (GALAP (Galium); [8]): 0.0
5 | CCOC(=O)CN1C(=O)C(C(=O)OC(C)(C)C)SC1=Nc1cc(-n2c(=O)cc(C(F)(F)F)n(C)c2=O)c(F)cc1Cl (stereo not shown) [Compound 167, 5-Carboxy-2-{{2-chloro-5-[3,6-dihydro-3-methyl-2,6-dioxo-4-(trifluoromethyl)-1(2H)-pyrimidinyl]-4-fluorophenyl}imino}-4-oxo-3-thiazolidineacetic acid, 5-tert-butyl ethyl ester] | – | – | – | – | 4.0 | 7.0 | 9.0 | 4.0 | – | – | – | – | – | – | – | – | 9.0 | 9.0 | 9.0 | – | Preemergence herbicidal rating GLXMAW ([1]; 0.0156 kg/ha): 1.0; Preemergence herbicidal rating GLXMAW ([1]; 0.0313 kg/ha): 0.0; Preemergence herbicidal rating GLXMAW ([1]; 0.0625 kg/ha): 0.0; Preemergence herbicidal rating GLXMAW ([1]; 0.1250 kg/ha): 4.0; Preemergence herbicidal rating GLXMAW ([1]; 0.2500 kg/ha): 4.0; Preemergence herbicidal rating GLXMAW ([1]; 0.5000 kg/ha): 7.0; Herbicidal rating CHEAL ([2]; rate 0.1250 kg/ha): 9.0; Preemergence herbicidal rating ECHCG (ECHCG (Barnyardgrass); 0.0156 kg/ha): 0.0; Preemergence herbicidal rating ECHCG (ECHCG (Barnyardgrass); 0.0313 kg/ha): 0.0; Preemergence herbicidal rating ECHCG (ECHCG (Barnyardgrass); 0.0625 kg/ha): 6.0; Preemergence herbicidal rating ECHCG (ECHCG (Barnyardgrass); 0.1250 kg/ha): 9.0; Preemergence herbicidal rating ECHCG (ECHCG (Barnyardgrass); 0.2500 kg/ha): 9.0; Preemergence herbicidal rating ECHCG (ECHCG (Barnyardgrass); 0.5000 kg/ha): 8.0; Preemergence herbicidal rating GALAP (GALAP (Galium); 0.0156 kg/ha): 1.0; Preemergence herbicidal rating GALAP (GALAP (Galium); 0.0313 kg/ha): 5.0; Preemergence herbicidal rating GALAP (GALAP (Galium); 0.0625 kg/ha): 7.0; Preemergence herbicidal rating GALAP (GALAP (Galium); 0.1250 kg/ha): 9.0; Preemergence herbicidal rating GALAP (GALAP (Galium); 0.2500 kg/ha): 6.0; Preemergence herbicidal rating GALAP (GALAP (Galium); 0.5000 kg/ha): 7.0; Herbicidal rating IPOHE ([3]; rate 0.1250 kg/ha): 9.0

Source: US20020137929A1, “1 - (3-heterocyclylphenyl) isothiourea, -isourea, -guanidine and -amidine herbicidal agents” (Intellectual Property Department, BASF Aktiengesellschaft, priority 1998, published 2002)
